Consider 3 compounds from US11655450B2, “Method for inducing differentiation of stem cell into dopaminergic neural precursor cell” (S-BIOMEDICS, priority 2019, dated 2023).

For assay [1], the system named is stem cells. As to the kind of experiment: Cell adhesion test with ECM. The class given is cell-based, human. Here is the method: With respect to CELLstart and various concentrations (2-7 μg/mL) of ECM (Laminin 521), stem cells were cultured using the same protocol as in the above Examples to conduct a cell adhesion test.
Assay [2] concerns FOXA2 and/or LMX1A. In words: Immunocytochemistry of FOXA2 and/or LMX1A expression during differentiation into dopaminergic neural precursor cells. The assay is classed as cell-based, human. Here is the method:
Cells were fixed for 10 min in a 4% paraformaldehyde solution.
In order to smoothly penetrate into the cytoplasm, […] incubated with 0.1% Trition X-100 (in PBS) for 15 min and then with 2% bovine serum albumin (BSA, in PBS) for 1 hour at room temperature.
Subsequently, the primary antibodies (see Table 1, below) were allowed to bind to the cells at 4° C. Secondary antibodies suitable for the respective primary antibody species (see Table 1, below) were used to confirm the primary antibody-bound cells.
Finally, cell nuclei were imaged. In this regard, the cells were incubated with 4′, […] (DAPI) in PBS for 10 min to stain the nuclei which were then imaged under a fluorescence microscope. Important markers were identified and analyzed.
The cells were differentiated into dopaminergic neural precursor cells in the same manner as the method of the present invention, with the exception of treating the cells with SAG and CHIR99021 at respective concentrations of 0.5 μM and 1.0 μM, or 1.0 μM and 1.5 μM, instead of 1.0 μM and 2.0 μM. With the expression of FOXA2 and/or LMX1A, this method was compared to the method of the present disclosure.

For the compound “Laminin-521: ECM (Laminin 521) used to coat culture dishes”, the cell adhesion result is recorded as “too poor adhesion to conduct the test” in assay [1] (2 μg/mL and 3 μg/mL); “relatively high adhesion” in assay [1] (4 μg/mL and 5 μg/mL). Further, in assay [1] (6 μg/mL and 7 μg/mL), the “cell state on ECM” value is given as “spontaneous differentiation at high frequency”.

For `Cc1c[nH]c(-c2cnc(NCCNc3ccc(C#N)cn3)nc2-c2ccc(Cl)cc2Cl)n1` [CHIR99021, 6-[[2-[[4-(2,4-dichlorophenyl)-5-(5-methyl-1H-imidazol-2-yl)-2-pyrimidinyl]amino]ethyl]amino]-3-pyridinecarbonitrile], in assay [2] (markers for dopaminergic neural precursor cells, as illustrated in the Example section), the “expression of LMX1A and En-1” value is “upregulate the expression of LMX1A and En-1”.

In the case of `CNC1CCC(N(Cc2cccc(-c3ccncc3)c2)C(=O)c2sc3ccccc3c2Cl)CC1.Cl.Cl.O.O` (centres unmarked) [SAG], the “expression of FOXA2” value in assay [2] (marker for dopaminergic neural precursor cells, as explained in the Example section) is recorded as “upregulate the expression of FOXA2”.
